Test results: patent publication US8961759B2, “Device and method for mitochondrial membrane potential assessment” (priority 2011, dated 2015)

What was measured:
[1] = test system: human mitochondria (Heb7A); experiment: Mitochondrial membrane potential assay with sensor device 1000, substrates and inhibitors added (FIG. 12); format: cell-based; conditions: isolated Heb7A mitochondria in respiration buffer, about 10 μM TPP+, sequential additions
Procedure: The voltmeter was linked to the computer via a GPIB interface (National Instrument, GPIB-USB-HS) for data communication. The voltage signal from the voltmeter was acquired using Labview software, so that simultaneous monitoring of the mitochondrial membrane potential could be achieved.
The evaluation of the mitochondrial membrane potential was performed with human mitochondria (Heb7A) in respiration buffer (225 mM mannitol, 75 mM sucrose, 10 mM KCl, 10 mM Tris-HCl, 5 mM KH2PO4, pH 7.2). The measurements were repeated 4 times with freshly prepared mitochondria to confirm the performance and the reproducibility of the sensor. […] 25 ng of isolated mitochondria in 85 μL was used for the test resulting in a final concentration of 0.29 ng/μL.
FIG. 11 illustrates an image of a complete sensor device 1000 showing the reference electrode 1015 and working electrode 1016 with arrows. The sensing chamber was filled with an initial volume of 71 μL respiration buffer. Once the plot baselined to zero, a 100 μM TPP^+Cl^− solution was added to provide a working concentration. The working concentration of TPP^+ was kept at about 10 μM to prevent inhibition of respiration. After stabilization, isolated mitochondria (5 ng μL/1) were added to the sensing chamber 1011.

[2] = compared with DDA+; cited from earlier work
[3] = value given for Equation 3; cited from earlier work

Compound | change in the magnitude of ΔΨm after addition [1] | diffusion coefficient through mitochondrial membranes relative to other cations such as DDA+ [2] [times faster] | partition coefficient, binding to the external face of the inner membrane (Ko) [3] [µL/mg]
C=C(C)[C@H]1Cc2c(ccc3c2O[C@@H]2COc4cc(OC)c(OC)cc4[C@@H]2C3=O)O1 [Rot] | slow decline in the magnitude of ΔΨm |  | 
c1ccc([P+](c2ccccc2)(c2ccccc2)c2ccccc2)cc1 [TPP^+, tetraphenylphosphonium] |  | 15 | 14.3
O=C(O)CC(=O)O [malonate] | slow decrease in the magnitude of ΔΨm |  | 
O=C(O)CCC(=O)O [succinate] | increase the magnitude of ΔΨm |  | 
